What was measured:
Staphylococcus aureus [1] = test: Antibacterial activity against methicillin-resistant Staphylococcus aureus H 5996/08 assessed as growth inhibition after 48 hrs by broth microdilution test; assay type: functional; conditions: H 5996/08, 48 h
[2] = tested on: Staphylococcus epidermidis; test: Antibacterial activity against Staphylococcus epidermidis H 6996/08 assessed as growth inhibition after 24 hrs by broth microdilution test; assay type: functional; conditions: H 6996/08, 24 h
[3] = tested on: Staphylococcus epidermidis; test: Antibacterial activity against Staphylococcus epidermidis H 6996/08 assessed as growth inhibition after 48 hrs by broth microdilution test; assay type: functional; conditions: H 6996/08, 48 h
Staphylococcus aureus [4] = test: Antibacterial activity against methicillin-resistant Staphylococcus aureus H 5996/08 assessed as growth inhibition after 24 hrs by broth microdilution test; assay type: functional; conditions: H 5996/08, 24 h
[5] = tested on: Trichophyton mentagrophytes; test: Antifungal activity against Trichophyton mentagrophytes 445 assessed as growth inhibition after 120 hrs by CLSI M38-A broth microdilution method; assay type: functional, organism-based; conditions: Trichophyton mentagrophytes, 445, 120 h
Pichia kudriavzevii [6] = test: Antifungal activity against Candida krusei E28 assessed as growth inhibition after 24 hrs by CLSI M27-A2 broth microdilution method; assay type: functional; conditions: E28, 24 h
Candida albicans [7] = test: Antifungal activity against Candida albicans ATCC 44859 assessed as growth inhibition after 24 hrs by CLSI M27-A2 broth microdilution method; assay type: functional; conditions: ATCC 44859, 24 h
Candida albicans [8] = test: Antifungal activity against Candida albicans ATCC 44859 assessed as growth inhibition after 48 hrs by CLSI M27-A2 broth microdilution method; assay type: functional; conditions: ATCC 44859, 48 h
Trichosporon asahii [9] = test: Antifungal activity against Trichosporon asahii 1188 assessed as growth inhibition after 24 hrs by CLSI M27-A2 broth microdilution method; assay type: functional; conditions: Trichosporon asahii, 1188, 24 h
[10] = tested on: Trichophyton mentagrophytes; test: Antifungal activity against Trichophyton mentagrophytes 445 assessed as growth inhibition after 72 hrs by CLSI M38-A broth microdilution method; assay type: functional, organism-based; conditions: Trichophyton mentagrophytes, 445, 72 h
Pichia kudriavzevii [11] = test: Antifungal activity against Candida krusei E28 assessed as growth inhibition after 48 hrs by CLSI M27-A2 broth microdilution method; assay type: functional; conditions: E28, 48 h
Trichosporon asahii [12] = test: Antifungal activity against Trichosporon asahii 1188 assessed as growth inhibition after 48 hrs by CLSI M27-A2 broth microdilution method; assay type: functional; conditions: Trichosporon asahii, 1188, 48 h
[13] = Lipophilicity, log K of the compound in methanol-water mixture by RP-HPLC; assay type: physicochemical
[14] = Octanol-water partition coefficient, log P of the compound; assay type: physicochemical
[15] = (§1) Cytotoxicity against human THP1 cells assessed as cell death after 24 hrs by LDH assay; assay type: cell-based, THP-1; conditions: THP-1 cells, read-out: LD50
Mycobacterium kansasii = test: Antimycobacterial activity against log-phase Mycobacterium kansasii CIT11/06 assessed as growth inhibition after 5 days by alamar blue assay; assay type: functional; conditions: CIT11/06, 120 h
THP-1 = test: as §1; assay type: cell-based; conditions: thp-1, 24 h

Row | Compound | IC90 (Staphylococcus aureus [1]) [µM] | IC80 [2] [µM] | IC80 [3] [µM] | IC80 (Staphylococcus aureus [4]) [µM] | IC50 [5] [µM] | IC80 (Pichia kudriavzevii [6]) [µM] | IC80 (Candida albicans [7]) [µM] | IC80 (Candida albicans [8]) [µM] | IC80 (Trichosporon asahii [9]) [µM] | IC50 [10] [µM] | IC80 (Pichia kudriavzevii [11]) [µM] | IC80 (Trichosporon asahii [12]) [µM] | log K [13] | logP [14] | CC50 at 24 h [15] [µM] | IC90 (Mycobacterium kansasii) [µM] | LD50 (THP-1)
1 | CC1(C)S[C@@H]2[C@H](NC(=O)COc3ccccc3)C(=O)N2[C@H]1C(=O)O [PENICILLIN V] | 500 | 62.5 | 250 | 250 | – | – | – | – | – | – | – | – | – | – | – | – | –
2 | OC(Cn1cncn1)(Cn1cncn1)c1ccc(F)cc1F [FLUCONAZOLE] | – | – | – | – | 3.91 | 3.91 | 0.06 | 0.12 | 0.24 | 1.95 | 15.6 | 0.48 | – | – | – | – | –
3 | c1ccc(CNc2nc3ccccc3s2)cc1 | > 125 | > 125 | > 125 | > 125 | > 125 | > 125 | > 125 | > 125 | 125 | > 125 | > 125 | > 125 | 0.6012 | 4.46 | – | – | –
4 | O=C(Nc1nc2ccccc2s1)c1ccccc1 | 500 | > 500 | > 500 | 125 | 125 | 500 | 125 | 125 | 250 | 62.2 | > 500 | > 500 | 0.6643 | 4.04 | > 30 | 533 | –
5 | CNc1nc2ccccc2s1 | 500 | 125 | 125 | 500 | 62.5 | 500 | 125 | 250 | 125 | 62.5 | > 500 | > 500 | 0.3819 | 2.73 | – | > 1830 | –
6 | CC(C)CC(=O)Nc1nc2ccccc2s1 | 125 | > 125 | > 125 | 125 | 62.5 | > 125 | 125 | 125 | 125 | 62.5 | > 125 | > 125 | 0.5598 | 3.54 | > 30 | 480 | –
7 | COC(=O)Nc1nc2ccccc2s1 | 250 | 125 | 500 | 250 | 125 | > 250 | 125 | 250 | 250 | 125 | > 250 | 500 | 0.4251 | 2.72 | 27.5 | 533 | –
8 | O=C(Nc1nc2ccccc2s1)C1CCCCC1 | > 125 | > 125 | > 125 | > 125 | > 125 | > 125 | > 125 | > 125 | 125 | > 125 | > 125 | > 125 | 0.688 | 4.11 | > 30 | 960 | –
9 | CCCCC(=O)Nc1nc2ccccc2s1 | 125 | 31.2 | 62.5 | 31.2 | 62.5 | 125 | 31.2 | 31.2 | 62.5 | 31.2 | > 125 | > 125 | 0.578 | 3.63 | > 30 | 1090 | –
10 | CC(C)(C)C(=O)Nc1nc2ccccc2s1 | 500 | 125 | 500 | 250 | 250 | 500 | 62.5 | 250 | > 500 | 62.5 | > 500 | > 500 | 0.5891 | 4.07 | – | 1040 | ND(Insoluble)
11 | NC(=O)c1cnccn1 [PYRAZINAMIDE] | – | – | – | – | – | – | – | – | – | – | – | – | – | – | – | > 812 | –
12 | NNC(=O)c1ccncc1 [ISONIAZID] | – | – | – | – | – | – | – | – | – | – | – | – | – | – | – | < 729 | –
13 | O=C(Cc1ccccc1)Nc1nc2ccccc2s1 | 62.2 | 125 | 500 | 31.2 | 125 | 62.5 | 3.9 | 7.81 | 31.2 | 15.6 | 125 | 62.2 | 0.5413 | 3.98 | > 30 | 256 | –
14 | CC(=O)Nc1nc2ccccc2s1 | 500 | 250 | > 500 | 250 | 250 | 250 | 62.5 | 125 | 250 | 250 | > 500 | > 500 | 0.3661 | 2.14 | > 30 | 1300 | –

From ChEMBL document CHEMBL2203012, “Anti-infective and herbicidal activity of N-substituted 2-aminobenzothiazoles” (Bioorg Med Chem, 2012)
